{
  "source": "patent US9834514B2",
  "about": "“Antibiotic sensitivity-restoring and photosensitive agents” (New Mexico Tech Research Foundation, priority 2015, dated 2017)",
  "key": {"[1]": {"test_system": "SW1088 (human brain astrocytoma)", "experiment": "Light-activated killing of cell lines (IC50 with/without light)", "format": "cell-based", "experimental": "(§1) TABLE 15 depicts the IC50 of compounds in the presence or absence of light for human cell lines. The cell lines used were HeLa (human cervical adenocarcinoma), U-87 MG (human brain gliobastoma), MES-SA (human uterine sarcoma), MES-SA/D×5 (human uterine sarcoma grown in presence of doxorubicin), NCI-H441 (human lung papillary adenocarcinoma), A549 (human lung carcinoma), WI-38 (human embryonic lung normal), MCF7 (human breast adenocarcinoma), SW1088 (human brain astrocytoma), B16F10 (mouse skin melanoma), NIH-3T3 (mouse fibroblast), and Jurkat (human lymphoblastoma). “1-Sol” in TABLE 15 was generated by dissolving compound 1 and potassium hydroxide at a 1:1 ratio in a DMSO/water solution. The cells were irradiated with continuous white light using a LumaCare™ light source for 2 minutes at a distance of 6.5 cm from the cells."}, "[2]": {"test_system": "MCF7 (human breast adenocarcinoma)", "experiment": "Light-activated killing of cell lines (IC50 with/without light)", "format": "cell-based", "experimental": "as §1"}, "[3]": {"test_system": "MES-SA (human uterine sarcoma)", "experiment": "Light-activated killing of cell lines (IC50 with/without light)", "format": "cell-based", "experimental": "as §1"}, "[4]": {"test_system": "MCF7A", "experiment": "Light-activated killing of cell lines (IC50 with/without light)", "format": "cell-based", "experimental": "as §1"}, "[5]": {"test_system": "WI-38 (human embryonic lung normal)", "experiment": "Light-activated killing of cell lines (IC50 with/without light)", "format": "cell-based", "experimental": "as §1"}, "[6]": {"test_system": "B16F10 (mouse skin melanoma)", "experiment": "Light-activated killing of cell lines (IC50 with/without light)", "format": "cell-based", "experimental": "as §1"}, "[7]": {"test_system": "Jurkat (human lymphoblastoma)", "experiment": "Light-activated killing of cell lines (IC50 with/without light)", "format": "cell-based", "experimental": "as §1"}, "[8]": {"test_system": "U-87 MG (human brain gliobastoma)", "experiment": "Light-activated killing of cell lines (IC50 with/without light)", "format": "cell-based", "experimental": "as §1"}, "[9]": {"test_system": "A549 (human lung carcinoma)", "experiment": "Light-activated killing of cell lines (IC50 with/without light)", "format": "cell-based", "experimental": "as §1"}, "[10]": {"test_system": "MES-SA/Dx5 (human uterine sarcoma grown in presence of doxorubicin)", "experiment": "Light-activated killing of cell lines (IC50 with/without light)", "format": "cell-based", "experimental": "as §1"}, "[11]": {"test_system": "NCI-H441 (human lung papillary adenocarcinoma)", "experiment": "Light-activated killing of cell lines (IC50 with/without light)", "format": "cell-based", "experimental": "as §1"}, "[12]": {"test_system": "MRSA (ATCC No. BAA-44)", "experiment": "Potentiation of antibiotic activity with 10 μM compound 1 (CFU/mL)", "format": "cell-based, S. aureus", "experimental": "The MICs for the antibiotics in the absence of compound 1 were calculated by adjusting the cells to 5×10^5 CFU/mL with McFarland Turbidity Standard (0.5) followed by the addition of an antibiotic. The cells were then incubated at 37° C. for 18 hours on a rotary shaking incubator at 100 rpm. Finally, MTT was added to the cells to assess viability.\nTo assess the potentiation of antibiotic activity, the cells were adjusted to 5×10^5 CFU/mL with McFarland Turbidity Standard (0.5). Compound 1 was then added at 10 μM, and the cells were incubated at 37° C. for 45 minutes. The desired antibiotic was then added at three sub-inhibitory concentrations, and the cells were incubated at 37° C. for 18 hours on a rotary shaking incubator at 100 rpm. The samples were then diluted ten-fold, drip streaked onto a TSA plate, and incubated for 18 hours at 37° C. The resulting cell colonies were counted, and the CFU/mL values were calculated."}, "[13]": {"experiment": "Stability of the formulation at 40° C. (dynamic light scattering)", "format": "physicochemical", "details": "in DMSO", "experimental": "The stability of the formulation was determined using dynamic light scattering (DLS) to measure the mean size and standard deviation, both of which remained consistent. The experiments were repeated after the indicated periods, and the outcome of compound 1 photodynamic therapy was essentially the same in terms of cell killing."}, "[14]": {"test_system": "A. baumannii", "experiment": "Treatment with compound 1 and PMB at fixed concentrations, with and without white light", "format": "cell-based", "description": "FIG. 53 is an example of the treatment of A. baumannii with compound 1 and PMB at fixed concentrations with and without irradiation using white light (λ)."}, "[15]": {"test_system": "Trypanosoma cruzi", "experiment": "Light-activated killing of parasites (MTT IC50)", "format": "cell-based", "experimental": "Trypanosomes were cultured in LIT media+10% FBS. The compounds were added to create a dilution series and incubated with the trypanosomes for 1 hour. The trypanosomes were then irradiated with continuous white light for 2 minutes at a distance of 6.5 cm using a LumaCare™ light source."}, "[16]": {"details": "2 min, white light 2 minutes, read-out: Compound + light IC50"}, "[17]": {"details": "no light, read-out: Compound IC50"}},
  "note": "Like-named read-outs stand apart in the source and are kept apart here.",
  "data": [
    {"smiles": "Clc1ccc(/C=C/c2[nH]c3ccccc3c2/C=C/c2ccc(Cl)cc2)cc1", "note": "[Compound 1]", "values": [
      {"measurement": "IC50", "setting": "[1]; [16]", "value": "470 ± 30", "unit": "nM"},
      {"measurement": "IC50", "setting": "[1]; [17]", "value": "> 50000", "unit": "nM"},
      {"measurement": "IC50", "setting": "[2]; [16]", "value": "330 ± 40", "unit": "nM"},
      {"measurement": "IC50", "setting": "[2]; [17]", "value": "17800 ± 220", "unit": "nM"},
      {"measurement": "IC50", "setting": "[3]; [16]", "value": "360 ± 50", "unit": "nM"},
      {"measurement": "IC50", "setting": "[3]; [17]", "value": "42700 ± 3400", "unit": "nM"},
      {"measurement": "IC50", "setting": "[4]; [16]", "value": "400 ± 10", "unit": "nM"},
      {"measurement": "IC50", "setting": "[4]; [17]", "value": "24500 ± 200", "unit": "nM"},
      {"measurement": "IC50", "setting": "[5]; [16]", "value": "330 ± 80", "unit": "nM"},
      {"measurement": "IC50", "setting": "[5]; [17]", "value": "63400 ± 5480", "unit": "nM"},
      {"measurement": "IC50", "setting": "[6]; B16-F10, 2 min, white light 2 minutes, read-out: Compound + light IC50", "value": "410 ± 220", "unit": "nM"},
      {"measurement": "IC50", "setting": "[6]; B16-F10, no light, read-out: Compound IC50", "value": "18700 ± 990", "unit": "nM"},
      {"measurement": "IC50", "setting": "[7]; [16]", "value": 25, "unit": "nM"},
      {"measurement": "IC50", "setting": "[7]; [17]", "value": "> 10000", "unit": "nM"},
      {"measurement": "IC50", "setting": "[8]; 2 min, U-87 MG (spheroids), white light 2 minutes, read-out: Compound + light IC50", "value": 450, "unit": "nM"},
      {"measurement": "IC50", "setting": "[8]; [16]", "value": "560 ± 20", "unit": "nM"},
      {"measurement": "IC50", "setting": "[8]; U-87 MG (spheroids), no light, read-out: Compound IC50", "value": "> 40000", "unit": "nM"},
      {"measurement": "IC50", "setting": "[8]; [17]", "value": "44600 ± 3680", "unit": "nM"},
      {"measurement": "IC50", "setting": "[9]; [16]", "value": "840 ± 320", "unit": "nM"},
      {"measurement": "IC50", "setting": "[9]; [17]", "value": "17400 ± 1520", "unit": "nM"},
      {"measurement": "IC50", "setting": "[10]; Homo sapiens, MES-SA/Dx5, 2 min, MES-SA/Dx5 (no doxorubicin), white light 2 minutes, read-out: Compound + light IC50", "value": "720 ± 70", "unit": "nM"},
      {"measurement": "IC50", "setting": "[10]; Homo sapiens, MES-SA/Dx5, 2 min, MES-SA/Dx5 + doxorubicin, white light 2 minutes, read-out: Compound + light IC50", "value": "440 ± 100", "unit": "nM"},
      {"measurement": "IC50", "setting": "[10]; Homo sapiens, MES-SA/Dx5, MES-SA/Dx5 + doxorubicin, no light, read-out: Compound IC50", "value": "38800 ± 2760", "unit": "nM"},
      {"measurement": "IC50", "setting": "[10]; MES-SA/Dx5 (no doxorubicin), white light 2 minutes, read-out: Compound + light IC50", "value": "620 ± 30", "unit": "nM"},
      {"measurement": "IC50", "setting": "[11]; [16]", "value": "760 ± 70", "unit": "nM"},
      {"measurement": "IC50", "setting": "[11]; [17]", "value": "50700 ± 4370", "unit": "nM"},
      {"measurement": "potentiation of tetracycline (CFU/mL)", "setting": "[12]; FIG. 18", "value": "tetracycline was more efficacious in cell killing in the presence of compound 1"},
      {"measurement": "potentiation of doxycycline (CFU/mL)", "setting": "[12]; FIG. 19", "value": "doxycycline was more efficacious in cell killing in the presence of compound 1"},
      {"measurement": "potentiation of norfloxacin (CFU/mL)", "setting": "[12]; FIG. 20", "value": "norfloxacin was more efficacious in cell killing in the presence of compound 1"},
      {"measurement": "potentiation of dicloxicillin (CFU/mL)", "setting": "[12]; FIG. 21", "value": "dicloxicillin was more efficacious in cell killing in the presence of compound 1"},
      {"measurement": "potentiation of oxacillin (CFU/mL)", "setting": "[12]; FIG. 22", "value": "oxacillin was more efficacious in cell killing in the presence of compound 1"},
      {"measurement": "potentiation of penicillin G (CFU/mL)", "setting": "[12]; FIG. 23", "value": "penicillin G was more efficacious in cell killing in the presence of compound 1"},
      {"measurement": "potentiation of tobramycin (CFU/mL)", "setting": "[12]; FIG. 24", "value": "tobramycin was more efficacious in cell killing in the presence of compound 1"},
      {"measurement": "potentiation of vancomycin (CFU/mL)", "setting": "[12]; FIG. 25", "value": "vancomycin was more efficacious in cell killing in the presence of compound 1"},
      {"measurement": "Stability at 40° C.", "setting": "[13]", "value": ">2", "unit": "months"},
      {"measurement": "cell killing with compound 1, PMB and white light", "setting": "[14]; FIG. 53", "value": "PMB was more efficacious in cell killing when co-administered with compound 1 and light"},
      {"measurement": "killing by combination of compound 1 and PMB (CFU)", "setting": "[14]; compared to either agent alone, FIG. 16", "value": "effective at killing A. baumannii"},
      {"measurement": "IC50", "setting": "[15]; continuous white light 2 minutes, MTT 24 hours later, read-out: Compound + light IC50", "value": "< 500", "unit": "nM"},
      {"measurement": "IC50", "setting": "[15]; no light, read-out: IC50", "value": "> 100000", "unit": "nM"}
    ]}
  ]
}
